Test results reported in patent US20060167030A1, “Sulfonamido-macrocycles and the salts thereof, a pharmaceutical composition comprising these compounds, the method of preparing and the use thereof” (priority 2004, published 2006).

Experiments:
Tie2 = target: T1, Tie2 (Homo sapiens, UniProt Q02763); test: Tie2 kinase assay or Tie2 autophosphorylation ELISA test (not stated which); assay type: biochemical; details: either assay; not specified per compound; read-out: IC50 of Tie2 inhibition, either in the Tie2 kinase assay or in the Tie2 autophosphorylation ELISA test
T1 construct: fused on or other part: GST in the kinase assays; none in the CHO cell assay
T1 sequence (Q02763 770-1124 limits assumed): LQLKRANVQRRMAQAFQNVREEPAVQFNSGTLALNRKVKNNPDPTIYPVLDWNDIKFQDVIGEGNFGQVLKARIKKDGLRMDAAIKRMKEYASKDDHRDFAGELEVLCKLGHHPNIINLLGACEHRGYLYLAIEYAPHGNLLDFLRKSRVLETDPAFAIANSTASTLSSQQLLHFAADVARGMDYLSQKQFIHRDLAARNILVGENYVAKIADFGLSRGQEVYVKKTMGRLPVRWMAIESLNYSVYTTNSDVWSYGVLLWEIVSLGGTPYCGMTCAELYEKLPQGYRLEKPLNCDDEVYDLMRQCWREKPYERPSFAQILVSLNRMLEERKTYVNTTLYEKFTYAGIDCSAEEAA
Description: Biological Experiment 1: ELISA Method
Herein CHO cell-cultures, which are stably transfected by known techniques with Tie2 using DHFR deficiency as selection marker, are stimulated by angiopoietin-2. The specific autophosphorytation of Tie2 receptors is quantified with a sandwich-ELISA using anti-Tie2 antibodies for catch and anti-phosphotyrosine antibodies coupled to HRP as detection.
• 96 well tissue culture plate, sterile, Greiner • 96 well FluoroNunc plate MaxiSorp Surface C, Nunc • 96 well plate polypropylene for compound dilution in DMSO • CHO Tie2/DHFR (transfected cells) • PBS−; PBS++, DMSO • MEM alpha Medium with Glutamax-I without Ribonucleosides and Deoxyribonucleosides (Gibco #32561-029) • with 10% FCS after dialysis! and 1% PenStrep • Lysis buffer: 1 Tablet “Complete” protease inhibitor • 1 cap Vanadate (1 mL>40 mg/mL; working solution 2 mM) • ad 50 mL with Duschl-Puffer • pH 7.6 • Anti-TIE-II antibody 1:425 in Coating Buffer pH 9.6 • Stock solution: 1.275 mg/mL>working: 3 μg/mL • PBST: 2 bottles PBS(10×)+10 ml Tween, fill up with VE-water • RotiBlock 1:10 in VE-water • Anti-Phosphotyrosine HRP-Conjugated 1:10000 in 3% TopBlock • 3% TopBlock in PBST • BM Chemiluminescence ELISA Substrate (POD) • solution B 1:100 solution A • SF9 cell culture medium • Ang2-Fc in SF9 cell culture medium Cell Experiment: • Dispense 5×10^4 cells/well/98 μL in 96 well tissue culture plate • Incubate at 37° C./5% CO2 • After 24 h add compounds according to desired concentrations • Add also to control and stimulated values without compounds 2 μL DMSO • And mix for a few min at room temperature • Add 100 μL Ang2-Fc to all wells except control, which receives insect medium • Incubate 20 min at 37° C. • Wash 3× with PBS++ • Add 100 μl Lysis buffer/well and shake a couple of min at room temperature • Store lysates at […] before utilizing for the ELISA Performance of Sandwich-ELISA • Coat 96 well FluoroNunc Plate MaxiSorp Surface C with anti-Tie2 Mab • 1:425 in Coating buffer pH 9.6; 100 μL/well overnight at 4° C. • Wash 2× with PBST • Blcock plates with 250 μL/well RotiBtock 1:10 in VE-water • Incubate for 2 h at room temperature or overnight at 4° C. shaking • Wash 2× in PBST • Add thawed lysates to wells and incubate overnight shaking at 4° C. • Wash 2× with PBST • Add 100 μL/well anti-Phosphotyrosine HRP-Conjugated 1:10000 in 3% TopBLock (3% TopBLock in PBST) and incubate overnight under shaking • Wash 6× with PBST • Add 100 μL/well BM Chemiluminescence ELISA Substrate (POD) solutions 1 und 2 (1:100) • Determine luminescence with the LumiCount. Biological Experiment 2: Tie-2-Kinase HTRF-Assay
Tie-2 phosphorylates tyrosine residues of the artificial substrate poLyGAT (biolinylated poLyGLuAlaTyr). Detection of phosphorylated product is achieved specifically by a trimeric detection complex consisting of the phosphorylated substrate, streptavidin-XLent (SA-XLent) which binds to biotin, and Europium Cryptate-LabeLed anti-phosphotyrosine antibody PT66 which binds to phosphorylated tyrosine. Excitation of Europium fluorescence with 337 nm light results in emission of long-lived light with 620 nm. In case a trimeric detection complex has formed, part of the energy will be transferred to the SA-XLent fluorophore that itself then emits long-lived light of 665 nm (FRET: fluorescence resonance energy transfer). […] Measurement is performed in a Packard Discovery or BMG Rubystar instrument. A-counts (emission at 665 nm) will be divided by B-counts (emission at 620 nm) and multiplicated with a factor of 10000. The resulting numbers are called the “well ratio” of the sample.
A recombinant fusion protein of GST and the intracellular domains of Tie-2, expressed in insect cells (Hi-5) and purified by Glutathion-Sepharose affinity chromatography was used as kinase. Alternatively, commercially available GST-Tie2-fusion protein (Upstate Biotechnology, Dundee, Scotland) can be used. […]

[1] = Proliferation test / cytotoxicity assay (crystal violet); assay type: cell-based; details: human, DU 145 tumour cells; cell line DU 145
Experimental: Biological Experiment 3: Proliferation Test
To examine cell toxicity a cell proliferation test were established.
With the cell proliferation test different tumour cell lines (e.g. Du 145) can be examined. The cells were dispensed in RPMI 1640 culture medium, supplied with 10% (v/v) fetal calf serum plus 1% (v/v) Penicillin/Streptomycin solution at a cell density of 2.000 cell/100 μL medium/per well (96 well plate). After three hours the cells were washed with PBS (containing calcium and magnesium). 100 μL of culture medium above with 0.1% (v/v) fetal calf serum was added and cultured at 37° C. and 5% CO2-atmosphere. Next day compounds of the present invention diluted in DMSO for appropriate concentrations were added and further 100 μL culture medium 0.5% (v/v) fetal calf serum. After 5 days cell culturing at 37° C. and 5% CO2-atmosphere cells were washed with PBS. 20 μL of glutaraldehyde solution (11% (v/v)) is added and the cells were slightly shaken at room temperature for 15 min. After that the cell were washed 3 times and dried in the air. 100 μL of crystal violet solution (0.1% at pH 3.5) were added and the cells were shaken for 30 min. The cells were washed with tap water and air-dried. The colour is dissolved with 100 μL of acetic acid (10% (v/v)) under strong shaking for 5 min. The absorption was measured at 595 nm wavelength.

SMILES | IC50 (Tie2) [µM] | IC50 at 5 days [1] [µM]
O=S1(=O)NCCCNc2nc(ncc2-c2ccc(O)cc2)Nc2cccc1c2 [Example 9, 4-[4,4-dioxo-4λ^6-thia-2,5,9-triaza-1(2,4)-pyrimidina-3(1,3)-benzenacyclononaphan-1^5-yl]phenol] | ≤ 2 | 
COc1ccc(-c2cnc3nc2NCCCNS(=O)(=O)c2cccc(c2)N3)cc1 [Example 10, 1^5-(4-methoxyphenyl)-4-thia-2,5,9-triaza-1(2,4)-pyrimidina-3(1,3)-benzenacyclononaphane 4,4-dioxide] | ≤ 2 | > 1
CS(=O)(=O)c1ccc(-c2cnc3nc2NCCCNS(=O)(=O)c2cccc(c2)N3)cc1 [Example 11, 1^5-(4-methylsulfonylphenyl)-4-thia-2,5,9-triaza-1(2,4)-pyrimidina-3(1,3)-benzenacyclononaphane 4,4-dioxide] | ≤ 2 | 
O=S1(=O)NCCCNc2nc(ncc2/C=C\c2ccccc2)Nc2cccc1c2 [Example 51, 1^5-((Z)-styryl)-4-thia-2,5,9-triaza-1(2,4)-pyrimidina-3(1,3)-benzenacyclononaphane 4,4-dioxide] | ≤ 2 | 

Second part, led by results:

IC50 (Tie2) [µM] | SMILES | IC50 at 5 days [1] [µM]
≤ 2 | COC(=O)c1ccc(-c2cnc3nc2NCCCNS(=O)(=O)c2cccc(c2)N3)cc1 [Example 6, methyl 4-[4,4-dioxo-4λ^6-thia-2,5,9-triaza-1(2,4)-pyrimidina-3(1,3)-benzenacyclononaphan-1^5-yl]benzoate] | > 1
≤ 2 | CC(=O)c1ccc(-c2cnc3nc2NCCCNS(=O)(=O)c2cccc(c2)N3)cc1 [Example 7, 1-[4-[4,4-dioxo-4λ^6-thia-2,5,9-triaza-1(2,4)-pyrimidina-3(1,3)-benzenacyclononaphan-1^5-yl]phenyl]-ethanone] | > 1
≤ 2 | O=S1(=O)NCCCNc2nc(ncc2-c2ccccc2)Nc2cccc1c2 [Example 8, 1^5-phenyl-4-thia-2,5,9-triaza-1(2,4)-pyrimidina-3(1,3)-benzenacyclononaphane 4,4-dioxide] | > 1
≤ 2 | C=C(c1ccccc1)c1cnc2nc1NCCCNS(=O)(=O)c1cccc(c1)N2 [Example 52, 1^5-(1-phenyl-vinyl)-4-thia-2,5,9-triaza-1(2,4)-pyrimidina-3(1,3)-benzenacyclononaphane 4,4-dioxide] | 
